# Article PMC10928712, “High Target Homology Does Not Guarantee Inhibition: Aminothiazoles Emerge as Inhibitors of Plasmodium falciparum” (ACS Infectious Diseases, 2024)
# What was measured:
# Hep G2 cells = experiment: Hep G2 viability assay (counter screen); format: cell-based, human; conditions: for IC50: HepG2, 48 h, cytotoxicity, 48 h
# Method: HepG2 cells (2 × 10^5 cells per well) were seeded in 24-well, flat-bottomed plates. Culturing of cells, incubations, and OD measurements were performed as described previously with small modifications.[58] 24 h after seeding the cells, the incubation was started by the addition of compounds in a final DMSO concentration of 1%. The metabolic activity of the living cell mass was determined after 48 h. At least three independent measurements were performed for each compound. The IC50 values were determined during logarithmic growth using GraphPad Prism software. All experiments were performed at least in triplicate, and data reported represent the mean ± SD.
# P. falciparum Dd2 = experiment: Method III growth inhibition assay (HRP2-ELISA, 3 days), Dd2; format: cell-based, Plasmodium falciparum; conditions: Plasmodium falciparum, DD2, chloroquine-resistant Dd2, method III
# P. falciparum 3D7 [1] = experiment: Method III growth inhibition assay (HRP2-ELISA, 3 days), 3D7; format: cell-based, Plasmodium falciparum
# [2] = Metabolic stability in human liver S9 fraction; format: in vitro ADME; conditions: human, pooled liver S9 fraction, 1 μM compound
# Method: For the evaluation of combined phase I and phase II metabolic stability, the compound (1 μM) was incubated with 1 mg/mL pooled liver S9 fraction (XenoTech), 2 mM NADPH, 1 mM UDPGA, 10 mM MgCl2, 5 mM GSH, and 0.1 mM PAPS at 37 °C for 0, 5, 15, 30, and 60 min. The metabolic stabilities of testosterone (1 μM), verapamil (1 μM), and propranolol (1 μM) were determined in parallel to confirm the enzymatic activity of the S9 fraction. The incubation was stopped by precipitation of S9 enzymes with two volumes of cold acetonitrile containing internal standard (150 nM diphenhydramine). Samples were stored on ice for 10 min, and precipitated protein was removed by centrifugation (15 min, 4 °C, 4000 rpm). The concentration of the remaining test compound at the different time points was analyzed by LC-MS/MS (TSQ Quantum Access MAX, Thermo Fisher, Dreieich, Germany) and used to determine half-life (t1/2).
# [3] = Kinetic solubility determination; format: physicochemical; conditions: PBS buffer and 2% DMSO; for solubility at 5 min: PBS with 2% DMSO, aqueous buffer, kinetic from dmso stock, read-out: Max. solubility
# Method: The desired compounds were sequentially diluted in DMSO in a 96-well plate. 3 μL of each well was transferred into another 96-well plate and mixed with 147 μL of PBS. Plates were shaken for 5 min at 600 rpm at room temperature (r.t.), and the absorbance at 620 nm was measured. Absorbance values were normalized by blank subtraction and plotted using GraphPad Prism 8.4.2 (GraphPad Software, San Diego, California, USA). Solubility (S) was determined based on the First X value of AUC function using a threshold of 0.005.
# P. falciparum 3D7 [4] = experiment: Method II growth-inhibition assay (PicoGreen, 3 days), 3D7; format: cell-based; conditions: Plasmodium falciparum; 3D7, method II; read-out: IC50 3D7-II
# From the text: (§1) Fidock (Columbia University).
# P. falciparum NF54 [5] = experiment: Method II growth-inhibition assay (PicoGreen, 3 days), NF54; format: cell-based; conditions: Plasmodium falciparum; chloroquine-sensitive NF54, method II
# From the text: as §1
# P. falciparum NF54 [6] = experiment: IDP rescue assay, P. falciparum NF54; format: cell-based; conditions: Plasmodium falciparum
# Method: (§2) Fidock (Columbia University). […] P. falciparum cultures were treated as described in method II. For IDP (Isoprenoids.com) rescue experiments, 125 μM IDP was added to the appropriate wells for the duration of the experiment. The well-described DXR inhibitor FSM was used as a positive control. IC50 values were calculated by nonlinear regression analysis using GraphPad Prism software. All experiments were performed at least in triplicate, and data reported represent the mean ± SD.
# P. falciparum 3D7 [7] = experiment: IDP rescue assay, P. falciparum 3D7; format: cell-based; conditions: Plasmodium falciparum
# Method: as §2
# P. falciparum 3D7 [8] = experiment: Method I growth-inhibition assay (SYBR Green I, 96 h); format: cell-based; conditions: Plasmodium falciparum; 3D7, method I; nM; read-out: IC50 3D7-I
# From the text: Nonlinear regression as implemented in GraphPad Prism 7.00 (log(inhibitor) vs response – variable slope (four parameters)) was used to fit the measured data to interpolate the IC50 value from the curve. No specific model was applied. Data was preprocessed by normalizing according to the following formula: […]
# eq 1: Fluorescence data normalization [drawing 2] where y is the fluorescence signal in each well, yminimum is the background fluorescence, and ymaximum is the highest measured fluorescence signal in the untreated wells. Drug concentrations (in μM) were transformed to the log(10)of the values. Means of each independent experiment were plotted as individual values, and the SD of the mean from the means shown as error bars. […] In case of transgenic cell lines, the built-in comparison Akaike’s information criteria (AICc) method was applied to the Log IC50s of the different cell lines. The test calculates a percentage probability of the simpler model “Log IC50 is the same for datasets” being correct. The test for homoscedasticity was performed to confirm if no weighting of values was appropriate.
# [9] = 3D7, method III (HRP2 assay), drc package of R, read-out: IC50 P. falciparum 3D7 (method III)
# [10] = Plasmodium falciparum, 3D7, 3D7, method III (HRP2 assay), drc package of R, read-out: IC50 P. falciparum 3D7 (method III)
# [11] = Plasmodium falciparum, 3D7, table of compounds as SMILES with biological activity, strain not given, values match 3D7 method III, read-out: IC50
smiles,measurement,setting,value
"Oc1ccc(C(O)Cc2ccc(Cl)cc2)c(O)c1 (centres unmarked) [compound 13, 4-(2-(4-Chlorophenyl)-1-hydroxyethyl)benzene-1,3-diol]",IC50,Hep G2 cells; Homo sapiens,> 100000 nM
same,cytotoxicity towards Hep G2 cells,Hep G2 cells; at 100 μM,no cytotoxicity
same,IC50,P. falciparum Dd2,28000 ± 13000 nM
same,IC50,P. falciparum 3D7 [1]; [9],10000 ± 2000 nM
same,IC50,P. falciparum 3D7 [1]; [10],9900 ± 1700 nM
same,half-life at 1 μM,[2],1.63 ± 0.167 h
"Nc1ccc(C/C(=N\O)c2ccc(O)cc2O)cc1 [compound 5, (E)-2-(4-Aminophenyl)-1-(2,4-dihydroxyphenyl)ethan-1-one oxime]",IC50,P. falciparum Dd2,> 111000 nM
same,IC50,P. falciparum 3D7 [1]; [10],> 111000 nM
same,Max. solubility,[3],193.6 ± 95.7 µM
same,solubility at 5 min,[3],~200 µM
"COc1cc(O)ccc1/C(Cc1ccc(N)cc1)=N/O [compound 4, (E)-2-(4-Aminophenyl)-1-(4-hydroxy-2-methoxyphenyl)ethan-1-one oxime]",IC50,P. falciparum Dd2,94000 ± 16000 nM
same,IC50,P. falciparum 3D7 [1]; [10],> 111000 nM
same,Max. solubility,[3],202.6 ± 1.6 µM
same,solubility at 5 min,[3],~200 µM
NN=C(Cc1ccc(Cl)cc1)c1ccc(O)cc1O [compound 12],IC50,P. falciparum Dd2,14000 ± 5000 nM
same,IC50,P. falciparum 3D7 [1]; [10],16000 nM
same,IC50,P. falciparum 3D7 [4],46000 ± 3000 nM
same,IC50,P. falciparum NF54 [5],45000 ± 7000 nM
"O=CN(O)CCCP(=O)(O)O [FSM, fosmidomycin, reference compound]",IC50,"P. falciparum NF54 [6]; NF54, 72 h, + IDP (125 μM)",7800 ± 300 nM
same,IC50,"P. falciparum NF54 [6]; NF54, without IDP",900 ± 500 nM
same,IC50,P. falciparum 3D7 [4],900 ± 200 nM
same,IC50,P. falciparum NF54 [5],700 ± 300 nM
same,IC50,"P. falciparum 3D7 [7]; 3D7, 72 h, + IDP (125 μM)",37400 ± 18200 nM
same,IC50,"P. falciparum 3D7 [7]; 3D7, without IDP",900 ± 400 nM
Nc1ccc(C(Cc2ccc(Cl)cc2)=NO)c(O)c1 [compound 10],IC50,Hep G2 cells; Homo sapiens,50000 to 100000 nM
same,IC50,P. falciparum Dd2,24000 ± 4000 nM
same,IC50,P. falciparum 3D7 [1]; [10],38000 ± 11000 nM
same,IC50,P. falciparum 3D7 [1]; [11],38200 nM
same,half-life at 1 μM,[2],0.9333 ± 0.00667 h
"COc1ccc(CNCc2cn(Cc3ccc(Cl)c(Cl)c3)c3ccccc23)c(OC)c1 [compound 34, 1-(1-(3,4-Dichlorobenzyl)-1H-indol-3-yl)-N-(2,4-dimethoxybenzyl)methan-amine]",inhibition at 10 µM,"Hep G2 cells; Homo sapiens, HepG2, at 10 μM",90%
same,IC50,P. falciparum Dd2,21000 ± 6000 nM
"CCN(CC)CCCC(C)Nc1ccnc2cc(Cl)ccc12 (centres unmarked) [Chloroquine, chloroquine diphosphate, reference compound]",IC50,P. falciparum 3D7 [8],17.8 ± 3.1 nM
same,IC50,P. falciparum Dd2,190 ± 30 nM
same,IC50,"P. falciparum 3D7 [1]; Plasmodium falciparum, 3D7, 3D7, method III, nM, read-out: IC50 3D7-III",2.8 ± 0.7 nM
Cc1nc(N)sc1-c1csc(Nc2ccc(Cl)cn2)n1 [compound 47],IC50,"P. falciparum NF54 [6]; NF54, 72 h, + IDP (125 μM)",1200 nM
same,IC50,"P. falciparum NF54 [6]; NF54, without IDP",1600 ± 300 nM
same,IC50,P. falciparum Dd2,2000 nM
same,IC50,P. falciparum 3D7 [1]; [10],1000 nM
same,IC50,P. falciparum 3D7 [4],2000 ± 1000 nM
same,IC50,P. falciparum NF54 [5],2000 nM
same,IC50,"P. falciparum 3D7 [7]; 3D7, 72 h, + IDP (125 μM)",2200 nM
same,IC50,"P. falciparum 3D7 [7]; 3D7, without IDP",2000 ± 700 nM
"Cc1ccc(Nc2nc(-c3ccccn3)cs2)cc1C [compound 46, N-(3,4-Dimethylphenyl)-4-(pyridin-2-yl)thiazol-2-amine]",IC50,"P. falciparum NF54 [6]; NF54, 72 h, + IDP (125 μM)",1200 nM
same,IC50,"P. falciparum NF54 [6]; NF54, without IDP",2100 ± 800 nM
same,IC50,P. falciparum Dd2,2000 nM
same,IC50,P. falciparum 3D7 [1]; [10],2000 ± 1000 nM
same,IC50,P. falciparum 3D7 [1]; [11],1500 nM
same,IC50,P. falciparum 3D7 [4],2000 nM
same,IC50,P. falciparum NF54 [5],2000 ± 1000 nM
same,IC50,"P. falciparum 3D7 [7]; 3D7, 72 h, + IDP (125 μM)",2800 nM
same,IC50,"P. falciparum 3D7 [7]; 3D7, without IDP",2300 ± 400 nM
"COc1ccc(/C(Cc2ccc(N)cc2)=N/O)c(OC)c1 [compound 6, (E)-2-(4-Aminophenyl)-1-(2,4-dimethoxyphenyl)ethan-1-one oxime]",IC50,P. falciparum Dd2,> 111000 nM
same,IC50,P. falciparum 3D7 [1]; [10],> 111000 nM
same,solubility at 5 min,[3],119 ± 27.4 µM
"OCc1cn(Cc2ccc(Cl)c(Cl)c2)c2cccc(F)c12 [compound 33, (1-(3,4-Dichlorobenzyl)-4-fluoro-1H-indol-3-yl)methanol]",IC50,"P. falciparum NF54 [6]; NF54, 72 h, + IDP (125 μM)",2200 nM
same,IC50,"P. falciparum NF54 [6]; NF54, without IDP",2400 ± 600 nM
same,IC50,Hep G2 cells; Homo sapiens,790 ± 370 nM
same,IC50,P. falciparum Dd2,3000 nM
same,IC50,P. falciparum 3D7 [1]; [9],2000 nM
same,IC50,P. falciparum 3D7 [1]; [10],3000 nM
same,IC50,P. falciparum 3D7 [1]; [11],2400 nM
same,IC50,P. falciparum 3D7 [4],3000 nM
same,IC50,P. falciparum NF54 [5],3000 ± 1000 nM
same,IC50,"P. falciparum 3D7 [7]; 3D7, 72 h, + IDP (125 μM)",3100 nM
same,IC50,"P. falciparum 3D7 [7]; 3D7, without IDP",2700 ± 300 nM
"OCc1cn(Cc2ccc(Cl)c(Cl)c2)c2c(Cl)cccc12 [compound 23, (7-Chloro-1-(3,4-dichlorobenzyl)-1H-indol-3-yl)methanol]",IC50,P. falciparum Dd2,36000 ± 16000 nM
same,IC50,P. falciparum 3D7 [1]; [9],14000 ± 1000 nM
same,IC50,P. falciparum 3D7 [1]; [10],13000 nM
"COc1cccc2c1c(CO)cn2Cc1ccc(Cl)c(Cl)c1 [compound 31, (1-(3,4-Dichlorobenzyl)-4-methoxy-1H-indol-3-yl)methanol]",IC50,P. falciparum Dd2,5000 ± 2000 nM
same,IC50,P. falciparum 3D7 [1]; [10],6000 ± 2000 nM
same,IC50,P. falciparum 3D7 [1]; [11],5500 nM
